Test results: patent EP0912518B1, “SUBSTITUTED PYRIDINES AS SELECTIVE CYCLOOXYGENASE-2 INHIBITORS” (Merck Frosst Canada & Co., priority 1996, dated 1998)

Columns and labels:
COX-2 = molecular target: T1, COX-2 (Homo sapiens, UniProt P35354); experiment: Human whole blood assay, COX-2 (LPS-induced PGE2 production); format: cell-based; details: Cox-1 U937 IC50 divided by Cox-2 Whole Blood IC50
T1 sequence (P35354 18-604): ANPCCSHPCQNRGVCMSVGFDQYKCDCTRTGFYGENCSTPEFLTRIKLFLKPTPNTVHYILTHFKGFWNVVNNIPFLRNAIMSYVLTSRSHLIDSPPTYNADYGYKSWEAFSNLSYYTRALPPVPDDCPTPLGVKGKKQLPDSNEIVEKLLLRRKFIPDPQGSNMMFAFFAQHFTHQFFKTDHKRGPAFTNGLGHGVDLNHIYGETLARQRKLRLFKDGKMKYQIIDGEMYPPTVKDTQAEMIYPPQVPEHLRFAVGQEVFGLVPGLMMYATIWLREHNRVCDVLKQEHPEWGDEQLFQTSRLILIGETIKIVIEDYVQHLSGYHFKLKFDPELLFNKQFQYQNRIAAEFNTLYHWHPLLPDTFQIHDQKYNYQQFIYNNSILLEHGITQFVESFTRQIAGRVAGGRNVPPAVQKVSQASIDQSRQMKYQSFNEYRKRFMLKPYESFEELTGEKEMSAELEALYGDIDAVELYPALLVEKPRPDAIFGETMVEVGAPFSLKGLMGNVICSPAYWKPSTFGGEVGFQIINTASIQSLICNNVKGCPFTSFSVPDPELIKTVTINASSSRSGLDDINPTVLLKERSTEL
Text: As well, platelets in whole blood contain a large amount of the COX-1 enzyme. Immediately following blood clotting, platelets are activated through a thrombin-mediated mechanism. […] Thus, the effect of test compounds on TxB2 levels following blood clotting can be examined and used as an index for COX-1 activity. Therefore, the degree of selectivity by the test compound can be determined by measuring the levels of PGE2 after LPS induction (COX-2) and TxB2 following blood clotting (COX-1) in the same assay. Fresh blood is collected in heparinized tubes by venipuncture from both male and female volunteers. The subjects have no apparent inflammatory conditions and have not taken any NSAIDs for at least 7 days prior to blood collection. […] At the end of the incubation, the blood is centrifuged at 12,000 x g for 5 minutes to obtain plasma. A 100µL aliquot of plasma is mixed with 400µL of methanol for protein precipitation. The supernatant is obtained and is assayed for PGE2 using a radioimmunoassay kit (Amersham, RPA#530) after conversion of PGE2 to its methyl oximate derivative according to the manufacturer's procedure.

COX-1 = molecular target: T2, COX-1 (Homo sapiens, UniProt P23219); experiment: Assay of COX-1 activity from U937 cell microsomes; format: biochemical; details: U937 cells, PGE2 synthesis in presence of AA
T2 construct: endogenous in cells; host or cells: U937 (human) cells; 100,000 x g microsomal fraction
Experimental: Compounds are tested as inhibitors of cyclooxygenase activity in whole cell cyclooxygenase assays. […] Cells used for these assays are human osteosarcoma 143 cells (which specifically express COX-2) and human U-937 cells (which specifically express COX-1). […] U 937 cells are pelleted by centrifugation at 500 x g for 5 min and washed once with phosphate-buffered saline and repelleted. Cells are resuspended in homogenization buffer consisting of 0.1 M Tris-HCl, pH 7.4, 10 mM EDTA, 2 µg/ml leupeptin, 2 µg/ml soybean trypsin inhibitor, 2 µg/ml aprotinin and 1 mM phenyl methyl sulfonyl fluoride. […] Assays are performed in duplicate in a final volume of 250 µl. Initially, 5 µl of DMSO vehicle or drug in DMSO are added to 20 µl of 0.1 M Tris-HCl buffer, pH 7.4 containing 10 mM EDTA in wells of a 96-deepwell polypropylene titre plate. 200 µl of the microsomal preparation are then added and pre-incubated for 15 min at room temperature before addition of 25 µl of […] arachidonic acid in […] Tris-HCl and 10 mM EDTA, pH 7.4. Samples are incubated for 40 min at room temperature and the reaction is stopped by the addition of 25 µl of 1 N HCl. Samples are neutralized with 25 µl of 1 N NaOH prior to quantitation of PGE2 content by radioimmunoassay (Dupont-NEN or Amersham assay kits). […]

Rat Paw Edema = experiment: Rat paw edema assay (carrageenan); format: in vivo; details: male Sprague-Dawley rats, po 1 hr before carrageenan, paw volume 3 hr later; for ED50: Rattus norvegicus
Experimental: Male Sprague-Dawley rats (150-200 g) are fasted overnight and are given, po, either vehicle (1% methocel or 5% Tween 80) or a test compound. One hr later, a line is drawn using a permanent marker at the level above the ankle in one hind paw to define the area of the paw to be monitored. The paw volume (V0) is measured using a plethysmometer (Ugo-Basile, Italy) based on the principle of water displacement. The animals are then injected subplantarly with 50 µl of 1% carrageenan solution in saline (FMC Corp, Maine) into the paw using an insulin syringe with a 25-gauge needle (i.e. 500 µg carrageenan per paw). Three hr later, the paw volume (V3) is measured and the increases in paw volume (V3 - VO) are calculated. The animals are sacrificed by CO2 asphyxiation and the absence or presence of stomach lesions scored. Data is compared with the vehicle-control values and percent inhibition calculated. All treatment groups are coded to eliminate observer bias.

T2 sequence (P23219 24-599): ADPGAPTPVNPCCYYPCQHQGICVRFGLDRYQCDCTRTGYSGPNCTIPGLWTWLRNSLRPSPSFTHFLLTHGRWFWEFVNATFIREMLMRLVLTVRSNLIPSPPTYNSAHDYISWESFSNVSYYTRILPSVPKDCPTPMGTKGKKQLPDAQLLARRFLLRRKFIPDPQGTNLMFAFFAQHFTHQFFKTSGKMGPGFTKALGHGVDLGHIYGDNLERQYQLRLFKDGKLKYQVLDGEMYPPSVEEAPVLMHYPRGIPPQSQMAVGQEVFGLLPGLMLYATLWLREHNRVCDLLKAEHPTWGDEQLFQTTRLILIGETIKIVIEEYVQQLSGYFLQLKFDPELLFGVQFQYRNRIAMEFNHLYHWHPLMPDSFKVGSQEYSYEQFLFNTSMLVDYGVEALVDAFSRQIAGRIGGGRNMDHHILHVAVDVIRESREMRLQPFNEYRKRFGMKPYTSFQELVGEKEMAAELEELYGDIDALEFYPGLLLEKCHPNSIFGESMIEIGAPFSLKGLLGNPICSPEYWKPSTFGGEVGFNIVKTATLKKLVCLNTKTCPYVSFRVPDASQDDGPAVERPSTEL

Structure (SMILES) | Selectivity Ratio (COX-2) | ED50 (Rat Paw Edema) [mg/kg] | also measured
CS(=O)(=O)c1ccc(-c2cccnc2-c2ccc(F)cc2)cc1 [Ab, reference compound] | 0.45 |  | 
CS(=O)(=O)c1ccc(-c2cccnc2-c2ccccc2)cc1 [Aa, reference compound] |  |  | IC50 (COX-1): > 10 µM; Rat Paw Edema (ED50, mg/kg) (Rat Paw Edema): >10 mg/kg
CS(=O)(=O)c1ccc(-c2cc(C(F)(F)F)cnc2-c2cccnc2)cc1 [Example 7, 3-(4-Methylsulfonyl)phenyl-2-(3-pyridinyl)-5-trifluoromethylpyridine] |  | 1.7 | 
Cc1ccc(-c2ncc(Cl)cc2-c2ccc(S(C)(=O)=O)cc2)cn1 [Example 23, 5-Chloro-3-(4-methylsulfonyl)phenyl-2-(2-methyl-5-pyridinyl)pyridine] |  | 0.6 | 
CS(=O)(=O)c1ccc(-c2cc(Br)cnc2-c2cccnc2)cc1 [Example 32] | >8.3 |  | 
